The values that follow are results of earlier work, collected in patent publication US5686420A, “Thyrotropin-releasing hormone analogs and method of use” (Georgetown University, priority 1995, dated 1997).

The conditions of the data set: in vivo.

Consider `NC(=O)[C@@H]1CCCN1C(=O)[C@H](Cc1cnc[nH]1)NC(=O)[C@@H]1CCC(=O)N1` [TRH, L-pyroglutamyl-L-histidyl-L-prolineamide], for which the plasma half-life is 4 to 5 min.
